ChEMBL document CHEMBL1130590, “Aryl sulfonamides as selective PDE4 inhibitors” (Bioorg Med Chem Lett, 1998)

Key:
Phosphodiesterase 4 [1] = molecular target: T1, Phosphodiesterase 4 (Homo sapiens, UniProt P27815+Q08499+Q07343+Q08493); test: Ratio of binding activity at catalytic site to Rolipram binding site of PDE4; assay type: protein assay
Phosphodiesterase 4 [2] = molecular target: T1, Phosphodiesterase 4; test: Binding activity towards Rolipram binding site of phosphodiesterase 4 at concentration 10 uM; assay type: protein assay
Phosphodiesterase 4 [3] = molecular target: T1, Phosphodiesterase 4; test: In vitro binding activity towards catalytic site of phosphodiesterase 4; assay type: protein assay
Phosphodiesterase 4 [4] = molecular target: T1, Phosphodiesterase 4; test: Binding activity towards Rolipram binding site of phosphodiesterase 4; assay type: protein assay
Phosphodiesterase 4 [5] = molecular target: T1, Phosphodiesterase 4; test: Inhibition of Rolipram binding to phosphodiesterase 4 at 1 uM; assay type: protein assay
Phosphodiesterase 4 [6] = molecular target: T1, Phosphodiesterase 4; test: Inhibition of phosphodiesterase 4; assay type: protein assay
Phosphodiesterase 4 [7] = molecular target: T1, Phosphodiesterase 4; test: Inhibition of phosphodiesterase 4 at 20 uM; assay type: protein assay
Phosphodiesterase 4 [8] = molecular target: T1, Phosphodiesterase 4; test: Inhibition of Rolipram binding to phosphodiesterase 4; assay type: protein assay; settings: concentration not given here
Phosphodiesterase 4 [9] = molecular target: T1, Phosphodiesterase 4; test: Inhibition of Rolipram binding to phosphodiesterase 4 at 100 uM; assay type: protein assay
Phosphodiesterase 4 [10] = molecular target: T1, Phosphodiesterase 4; test: Inhibition of phosphodiesterase 4 at 200 uM; assay type: protein assay
Phosphodiesterase 4 [11] = molecular target: T1, Phosphodiesterase 4; test: Inhibition of Rolipram binding to phosphodiesterase 4 at 20 uM; assay type: protein assay
[12] = molecular target: Phosphodiesterase 3 (Homo sapiens) (UniProt Q14432+Q13370); test: Inhibition of phosphodiesterase 3 at 200 uM; assay type: protein assay
Phosphodiesterase 1 [13] = molecular target: T2, Phosphodiesterase 1 (Homo sapiens, UniProt P54750+Q01064+Q14123); test: Inhibition of phosphodiesterase 1 at 20 uM; assay type: protein assay
[14] = molecular target: cGMP-dependent 3',5'-cyclic phosphodiesterase (Homo sapiens) (UniProt O00408); settings: 200 uM
cGMP-dependent 3',5'-cyclic phosphodiesterase (Homo sapiens), sequence (O00408 whole entry): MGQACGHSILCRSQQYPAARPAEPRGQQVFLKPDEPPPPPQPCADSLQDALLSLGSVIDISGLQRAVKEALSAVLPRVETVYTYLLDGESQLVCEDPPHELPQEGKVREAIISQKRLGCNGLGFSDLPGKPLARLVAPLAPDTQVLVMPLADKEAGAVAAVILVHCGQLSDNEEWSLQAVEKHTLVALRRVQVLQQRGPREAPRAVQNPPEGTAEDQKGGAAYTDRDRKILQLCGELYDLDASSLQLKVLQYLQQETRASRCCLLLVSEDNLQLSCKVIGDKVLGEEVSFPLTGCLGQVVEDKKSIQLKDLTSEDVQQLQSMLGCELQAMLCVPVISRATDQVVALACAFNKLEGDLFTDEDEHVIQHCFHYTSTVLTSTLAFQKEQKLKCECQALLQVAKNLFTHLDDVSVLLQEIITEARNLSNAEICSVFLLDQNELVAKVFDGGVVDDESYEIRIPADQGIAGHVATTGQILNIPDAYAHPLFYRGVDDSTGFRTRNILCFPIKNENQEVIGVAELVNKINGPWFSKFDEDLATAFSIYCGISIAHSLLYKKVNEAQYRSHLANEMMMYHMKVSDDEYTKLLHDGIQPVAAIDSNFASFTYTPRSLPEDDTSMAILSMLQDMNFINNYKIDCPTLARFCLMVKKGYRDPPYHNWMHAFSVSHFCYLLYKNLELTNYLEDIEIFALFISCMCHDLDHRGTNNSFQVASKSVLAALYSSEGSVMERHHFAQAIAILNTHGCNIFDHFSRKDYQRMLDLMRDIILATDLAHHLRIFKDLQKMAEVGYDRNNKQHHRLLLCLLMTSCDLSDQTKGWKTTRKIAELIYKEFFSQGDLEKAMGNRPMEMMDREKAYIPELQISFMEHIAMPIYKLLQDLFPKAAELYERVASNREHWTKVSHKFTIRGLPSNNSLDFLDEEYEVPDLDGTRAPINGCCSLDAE

[15] = molecular target: cGMP-specific 3',5'-cyclic phosphodiesterase (Homo sapiens) (UniProt O76074); test: Inhibition of phosphodiesterase 5 at 200 uM
[16] = molecular target: cGMP-dependent 3',5'-cyclic phosphodiesterase (Homo sapiens) (UniProt O00408); test: Inhibition of phosphodiesterase 2 at 200 uM
Phosphodiesterase 1 [17] = molecular target: T2, Phosphodiesterase 1; test: Inhibition of phosphodiesterase 1 at 200 uM; assay type: protein assay

Row | Structure (SMILES) | Ratio (Phosphodiesterase 4 [1]) | inhibition (Phosphodiesterase 4 [2]) [%] | IC50 (Phosphodiesterase 4 [3]) [µM] | IC50 (Phosphodiesterase 4 [4]) [µM] | also measured
1 | COc1ccc(S(=O)(=O)N(Cc2cccnc2)C2CCc3ccccc32)cc1OC (stereo unspecified) | < 0.9 | 20 | 9 | – | –
2 | COc1ccc(S(=O)(=O)N(CCCC#N)Cc2ccco2)cc1OC | < 1 | 37 | 9 | – | –
3 | COc1ccc(S(=O)(=O)N(Cc2cccnc2)S(=O)(=O)CCNS(=O)(=O)c2ccccc2)cc1OC | 0.13 | – | 3 | 24 | –
4 | COc1ccc(S(=O)(=O)N(Cc2cccnc2)S(C)(=O)=O)cc1OCCCCCc1ccccc1 | < 1 | – | 1.5 | – | inhibition (Phosphodiesterase 4 [5]): 18%
5 | COc1ccc2c(c1)C(NS(=O)(=O)c1ccc(OC)c(OC)c1)CC2 (stereo unspecified) | < 0.25 | 2 | 2.5 | – | –
6 | COc1ccc(S(=O)(=O)N(Cc2ccccn2)C2CCc3ccccc32)cc1OC (stereo unspecified) | < 0.5 | 12 | 5.3 | – | –
7 | COc1ccc(S(=O)(=O)n2c(=O)cc(-c3ccccc3)c3ccccc32)cc1OC | – | 14 | – | – | IC50 (Phosphodiesterase 4 [6]): 0.5 µM
8 | COc1ccc(S(=O)(=O)NCCC#N)cc1OC | – | – | – | 50 | IC50 (Phosphodiesterase 4 [6]): 17.6 µM
9 | COc1ccc(S(=O)(=O)N(Cc2cccnc2)S(C)(=O)=O)cc1OC1CCCC1 | 0.44 | – | 2 | 4.5 | –
10 | COc1ccc(S(=O)(=O)N(CC(C)=O)Cc2ccco2)cc1OC | 0.69 | – | 24 | 35 | –
11 | COc1ccc(S(=O)(=O)N(CC#N)Cc2ccco2)cc1OC | > 1 | 36 | – | – | inhibition (Phosphodiesterase 4 [7]): 30%
12 | CCCN(Cc1ccco1)S(=O)(=O)c1ccc(OC)c(OC)c1 | 0.1 | – | 1.5 | 15 | –
13 | COc1ccc(S(=O)(=O)N(Cc2ccccc2)Cc2cccnc2)cc1OC | < 1 | – | 5 | – | inhibition (Phosphodiesterase 4 [8]): 8%
14 | COC(=O)CN(Cc1ccco1)S(=O)(=O)c1ccc(OC)c(OC)c1 | < 1 | – | 10 | – | inhibition (Phosphodiesterase 4 [9]): 23%
15 | COc1ccc(S(=O)(=O)NCc2cccnc2)cc1OC | – | – | – | – | inhibition (Phosphodiesterase 4 [10]): 39%; inhibition (Phosphodiesterase 4 [9]): 41%
16 | COc1ccc(S(=O)(=O)n2ccc3ccccc3c2=O)cc1OC | – | – | – | – | IC50 (Phosphodiesterase 4 [6]): 0.5 µM; IC50 (Phosphodiesterase 4 [11]): 4 µM
17 | COc1ccc(S(=O)(=O)NC2CCc3ccccc32)cc1OC (stereo unspecified) | < 0.6 | 12 | 6 | – | –

Row | Structure (SMILES) | Ratio (Phosphodiesterase 4 [1]) | inhibition (Phosphodiesterase 4 [2]) [%] | IC50 (Phosphodiesterase 4 [3]) [µM] | IC50 (Phosphodiesterase 4 [4]) [µM] | also measured
18 | COc1ccc(S(=O)(=O)N(CCC#N)C2CCc3ccccc32)cc1OC (stereo unspecified) | < 0.4 | 26 | 4.1 | – | –
19 | COc1ccc(S(=O)(=O)N(CCC#N)C2CCCc3ccccc32)cc1OC (stereo unspecified) | < 0.6 | 30 | 6.4 | – | –
20 | COc1ccc(S(=O)(=O)n2c(-c3ccccc3)cc3ccccc3c2=O)cc1OC | – | 31 | – | – | IC50 (Phosphodiesterase 4 [6]): 0.6 µM
21 | COc1ccc(C2CNC(=O)C2)cc1OC1CCCC1 (stereo unspecified) [ROLIPRAM] | – | – | – | – | inhibition [12]: 27%; IC50 (Phosphodiesterase 1 [13]): > 200 µM; inhibition [14]: 28%
22 | COc1ccc(C(=O)NC2CCc3ccccc32)cc1OC (stereo unspecified) | 3.7 | – | 11 | 3 | inhibition [15]: 24%; inhibition [16]: 37%; inhibition [12]: 53%; inhibition (Phosphodiesterase 1 [17]): 14%
23 | COc1ccc(S(=O)(=O)N(CCC#N)Cc2ccco2)cc1OC1CCCC1 | > 1 | – | – | 10 | inhibition (Phosphodiesterase 4 [7]): 32%
24 | COc1ccc(S(=O)(=O)NC2CCCC2)cc1OC | < 1 | – | 100 | – | inhibition (Phosphodiesterase 4 [9]): 19%
25 | COc1ccc(S(=O)(=O)NC2CCc3cc(Cl)ccc32)cc1OC (stereo unspecified) | < 0.5 | 12 | 5.2 | – | –
26 | CCCN(Cc1ccc(C(=O)NC)cc1)S(=O)(=O)c1ccc(OC)c(OC)c1 | 0.44 | – | 1.9 | 4.3 | –
27 | COc1ccc(S(=O)(=O)N(CCC#N)CC2CCCO2)cc1OC (stereo unspecified) | 0.17 | – | 19 | 112 | –
28 | COc1ccc(C(=O)N2CCCc3ccccc32)cc1OC | < 1 | 15 | 20 | – | inhibition [15]: 12%; inhibition [16]: 21%; inhibition [12]: 31%; inhibition (Phosphodiesterase 1 [17]): 14%
29 | COc1ccc(S(=O)(=O)N(Cc2cccnc2)S(C)(=O)=O)cc1OC | 0.12 | – | 6 | 50 | –
30 | COc1ccc(S(=O)(=O)N(CCC#N)Cc2ccco2)cc1OC | < 1 | 37 | 10 | – | –
31 | COc1ccc(S(=O)(=O)n2c(-c3ccccc3)cc3ncccc3c2=O)cc1OC | – | 20 | – | – | IC50 (Phosphodiesterase 4 [6]): 1.5 µM
32 | COc1ccc(S(=O)(=O)N2CCc3ccccc32)cc1OC | < 0.43 | 18 | 4.3 | – | –
33 | COc1ccc(S(=O)(=O)N(Cc2ccccc2)Cc2ccccn2)cc1OC | < 0.7 | 5 | 7.8 | – | –
